Source: publication doi:10.1101/2024.08.13.607785v1 (biorxiv, 2024)
Where two headings read alike, the source gives them in different places. Values belong to the compound of their own block, whether it stands above or below them.

Columns and labels:
Assay in all cases: biochemical
Parameters in all cases: species or system human cell line lysate
[1] = biological target: Proto-oncogene tyrosine-protein kinase receptor Ret ; RET ; P07949 (Homo sapiens, UniProt P07949)
[2] = biological target: Protein kinase C delta type ; PRKCD ; Q05655 (Homo sapiens, UniProt Q05655)
[3] = biological target: Serine/threonine-protein kinase D3 ; PRKD3 ; O94806 (Homo sapiens, UniProt O94806)
[4] = biological target: Isoform 2 of Tyrosine-protein kinase Fyn ; FYN ; P06241-2 (Homo sapiens, UniProt P06241)
[5] = biological target: cAMP-dependent protein kinase catalytic subunit alpha ; PRKACA ; P17612 (Homo sapiens, UniProt P17612)
[6] = biological target: Dual specificity protein kinase CLK3 ; CLK3 ; P49761 (Homo sapiens, UniProt P49761)
[7] = biological target: Nucleoside diphosphate kinase, mitochondrial ; NME4 ; O00746 (Homo sapiens, UniProt O00746)
[8] = biological target: Isoform 3 of Citron Rho-interacting kinase ; CIT ; O14578-3 (Homo sapiens, UniProt O14578)
[9] = biological target: Serine/threonine-protein kinase 17B ; STK17B ; O94768 (Homo sapiens, UniProt O94768)
[10] = biological target: T1, Ephrin type-B receptor 1 ; EPHB1 ; P54762 (Homo sapiens, UniProt P54762)
T1 sequence (P54762 1-984): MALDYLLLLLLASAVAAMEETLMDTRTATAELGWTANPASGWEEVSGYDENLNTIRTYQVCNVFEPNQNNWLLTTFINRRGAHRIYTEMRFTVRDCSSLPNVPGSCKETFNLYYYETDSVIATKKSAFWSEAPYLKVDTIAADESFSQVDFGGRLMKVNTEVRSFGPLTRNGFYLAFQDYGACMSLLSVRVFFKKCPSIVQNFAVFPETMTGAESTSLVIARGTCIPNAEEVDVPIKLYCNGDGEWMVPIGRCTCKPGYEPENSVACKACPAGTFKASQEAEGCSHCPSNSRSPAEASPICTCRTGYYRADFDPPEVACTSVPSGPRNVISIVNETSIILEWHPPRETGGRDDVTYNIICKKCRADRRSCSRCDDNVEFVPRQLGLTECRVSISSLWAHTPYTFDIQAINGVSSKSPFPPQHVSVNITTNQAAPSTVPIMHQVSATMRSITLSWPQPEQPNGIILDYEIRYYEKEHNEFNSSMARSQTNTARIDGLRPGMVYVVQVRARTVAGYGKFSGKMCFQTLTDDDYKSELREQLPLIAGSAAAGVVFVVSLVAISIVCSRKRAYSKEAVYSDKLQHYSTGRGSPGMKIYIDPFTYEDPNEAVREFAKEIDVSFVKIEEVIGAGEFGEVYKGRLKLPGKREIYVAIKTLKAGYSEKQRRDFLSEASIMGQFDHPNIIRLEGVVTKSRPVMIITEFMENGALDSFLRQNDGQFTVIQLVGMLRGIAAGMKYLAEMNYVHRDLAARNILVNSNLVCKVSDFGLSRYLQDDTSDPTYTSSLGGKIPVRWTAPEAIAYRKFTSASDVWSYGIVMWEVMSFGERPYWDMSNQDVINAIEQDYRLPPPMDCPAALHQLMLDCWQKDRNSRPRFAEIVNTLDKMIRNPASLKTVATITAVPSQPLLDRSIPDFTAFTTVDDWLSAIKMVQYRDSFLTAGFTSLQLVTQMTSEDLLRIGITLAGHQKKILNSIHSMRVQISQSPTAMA

[11] = biological target: Mitogen-activated protein kinase kinase kinase 15 ; MAP3K15 ; Q6ZN16 (Homo sapiens, UniProt Q6ZN16)
[12] = biological target: Isoform 4 of Serine/threonine-protein kinase PAK 4 ; PAK4 ; O96013-4 (Homo sapiens, UniProt O96013)
[13] = biological target: Kinase suppressor of Ras 1 ; KSR1 ; Q8IVT5 (Homo sapiens, UniProt Q8IVT5)
[14] = biological target: BMP-2-inducible protein kinase ; BMP2K ; Q9NSY1 (Homo sapiens, UniProt Q9NSY1)
[15] = biological target: Mitogen-activated protein kinase kinase kinase kinase 3 ; MAP4K3 ; Q8IVH8 (Homo sapiens, UniProt Q8IVH8)
[16] = biological target: Focal adhesion kinase 1 ; PTK2 ; Q05397 (Homo sapiens, UniProt Q05397)
[17] = read-out: BAY-1143572 (10 µM) / %Intensity relative to DMSO
[18] = read-out: BAY-1251152 (10 µM) / %Intensity relative to DMSO

Sequence of Kinase suppressor of Ras 1 ; KSR1 ; Q8IVT5 (Q8IVT5 whole entry): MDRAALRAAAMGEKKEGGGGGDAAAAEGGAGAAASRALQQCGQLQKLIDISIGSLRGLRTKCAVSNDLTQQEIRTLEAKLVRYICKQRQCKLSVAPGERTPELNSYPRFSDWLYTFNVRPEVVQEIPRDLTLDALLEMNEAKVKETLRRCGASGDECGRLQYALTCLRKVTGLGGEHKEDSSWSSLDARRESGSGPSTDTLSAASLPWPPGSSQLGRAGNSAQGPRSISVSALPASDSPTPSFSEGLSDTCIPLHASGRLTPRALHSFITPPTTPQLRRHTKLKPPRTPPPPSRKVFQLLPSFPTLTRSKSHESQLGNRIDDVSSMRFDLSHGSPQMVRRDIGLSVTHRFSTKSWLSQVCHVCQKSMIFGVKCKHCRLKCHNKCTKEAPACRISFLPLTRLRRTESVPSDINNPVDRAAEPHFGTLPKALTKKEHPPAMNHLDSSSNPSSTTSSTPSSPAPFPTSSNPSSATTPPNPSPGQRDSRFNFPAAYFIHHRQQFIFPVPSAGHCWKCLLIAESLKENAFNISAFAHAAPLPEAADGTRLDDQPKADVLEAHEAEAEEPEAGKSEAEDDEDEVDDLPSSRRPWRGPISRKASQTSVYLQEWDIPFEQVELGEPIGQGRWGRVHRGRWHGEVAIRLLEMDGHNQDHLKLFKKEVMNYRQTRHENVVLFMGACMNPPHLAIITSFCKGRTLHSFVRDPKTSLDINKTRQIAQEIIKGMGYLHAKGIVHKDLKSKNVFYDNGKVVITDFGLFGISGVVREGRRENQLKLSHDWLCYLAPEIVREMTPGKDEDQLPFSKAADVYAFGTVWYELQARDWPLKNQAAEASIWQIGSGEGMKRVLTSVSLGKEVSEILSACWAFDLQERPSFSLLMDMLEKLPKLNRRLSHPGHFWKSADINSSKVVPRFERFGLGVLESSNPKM
Sequence of Mitogen-activated protein kinase kinase kinase 15 ; MAP3K15 ; Q6ZN16 (Q6ZN16 whole entry, canonical isoform): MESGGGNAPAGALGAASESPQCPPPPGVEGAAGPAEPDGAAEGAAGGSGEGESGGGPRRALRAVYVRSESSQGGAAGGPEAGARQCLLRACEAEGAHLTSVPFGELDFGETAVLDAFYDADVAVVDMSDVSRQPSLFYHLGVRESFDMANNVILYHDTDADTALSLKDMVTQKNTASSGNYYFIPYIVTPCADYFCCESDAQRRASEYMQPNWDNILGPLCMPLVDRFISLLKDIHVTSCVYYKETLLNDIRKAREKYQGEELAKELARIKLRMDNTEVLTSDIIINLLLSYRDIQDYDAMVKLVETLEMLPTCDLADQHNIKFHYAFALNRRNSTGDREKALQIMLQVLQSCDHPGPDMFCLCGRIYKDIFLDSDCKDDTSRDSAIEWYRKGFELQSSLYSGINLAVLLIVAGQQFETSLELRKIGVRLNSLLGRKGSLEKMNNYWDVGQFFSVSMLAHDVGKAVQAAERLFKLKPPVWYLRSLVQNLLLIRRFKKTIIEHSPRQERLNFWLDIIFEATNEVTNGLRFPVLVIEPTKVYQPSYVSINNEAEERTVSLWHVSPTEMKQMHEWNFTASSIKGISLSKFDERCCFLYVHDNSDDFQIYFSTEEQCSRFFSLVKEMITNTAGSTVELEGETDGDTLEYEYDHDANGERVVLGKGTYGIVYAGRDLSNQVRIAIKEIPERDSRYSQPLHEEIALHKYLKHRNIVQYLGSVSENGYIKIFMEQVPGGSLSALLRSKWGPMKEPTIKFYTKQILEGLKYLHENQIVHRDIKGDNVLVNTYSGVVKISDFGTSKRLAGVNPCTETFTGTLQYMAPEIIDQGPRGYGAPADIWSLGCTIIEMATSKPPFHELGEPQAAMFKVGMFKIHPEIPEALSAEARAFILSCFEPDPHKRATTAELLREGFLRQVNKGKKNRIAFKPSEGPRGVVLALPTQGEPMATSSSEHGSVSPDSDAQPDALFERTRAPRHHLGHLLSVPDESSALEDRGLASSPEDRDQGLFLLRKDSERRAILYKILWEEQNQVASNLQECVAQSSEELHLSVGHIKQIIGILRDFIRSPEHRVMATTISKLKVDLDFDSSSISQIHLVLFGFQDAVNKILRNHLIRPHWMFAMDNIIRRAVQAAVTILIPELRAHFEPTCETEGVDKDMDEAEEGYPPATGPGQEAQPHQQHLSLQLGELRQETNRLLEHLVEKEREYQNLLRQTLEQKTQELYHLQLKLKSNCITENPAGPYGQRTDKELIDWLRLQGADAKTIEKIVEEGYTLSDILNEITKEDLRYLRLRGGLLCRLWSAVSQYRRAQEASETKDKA
Sequence of Serine/threonine-protein kinase D3 ; PRKD3 ; O94806 (O94806 whole entry, canonical isoform, one chain of several): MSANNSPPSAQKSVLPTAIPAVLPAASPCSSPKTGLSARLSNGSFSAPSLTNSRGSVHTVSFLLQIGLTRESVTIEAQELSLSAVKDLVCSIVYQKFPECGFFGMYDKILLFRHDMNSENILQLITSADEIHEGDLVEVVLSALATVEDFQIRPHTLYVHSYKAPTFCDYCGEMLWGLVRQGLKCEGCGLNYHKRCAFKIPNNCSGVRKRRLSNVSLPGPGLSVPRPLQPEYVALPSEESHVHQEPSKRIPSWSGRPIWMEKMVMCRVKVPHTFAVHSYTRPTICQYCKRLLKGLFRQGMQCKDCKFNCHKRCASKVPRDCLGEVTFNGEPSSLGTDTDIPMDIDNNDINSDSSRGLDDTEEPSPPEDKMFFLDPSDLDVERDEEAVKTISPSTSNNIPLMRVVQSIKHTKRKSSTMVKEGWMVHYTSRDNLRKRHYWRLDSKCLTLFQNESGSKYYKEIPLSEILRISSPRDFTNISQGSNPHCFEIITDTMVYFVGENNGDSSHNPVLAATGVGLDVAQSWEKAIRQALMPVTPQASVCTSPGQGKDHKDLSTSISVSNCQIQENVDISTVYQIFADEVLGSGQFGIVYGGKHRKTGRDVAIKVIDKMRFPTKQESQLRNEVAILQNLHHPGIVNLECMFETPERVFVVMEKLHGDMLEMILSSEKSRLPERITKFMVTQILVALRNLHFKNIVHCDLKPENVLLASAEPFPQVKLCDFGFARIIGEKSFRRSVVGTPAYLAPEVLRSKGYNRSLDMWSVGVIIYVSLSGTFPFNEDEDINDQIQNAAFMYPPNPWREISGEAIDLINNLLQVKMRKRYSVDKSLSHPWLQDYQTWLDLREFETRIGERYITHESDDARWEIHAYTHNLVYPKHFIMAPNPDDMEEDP
Sequence of Nucleoside diphosphate kinase, mitochondrial ; NME4 ; O00746 (O00746 whole entry, canonical isoform): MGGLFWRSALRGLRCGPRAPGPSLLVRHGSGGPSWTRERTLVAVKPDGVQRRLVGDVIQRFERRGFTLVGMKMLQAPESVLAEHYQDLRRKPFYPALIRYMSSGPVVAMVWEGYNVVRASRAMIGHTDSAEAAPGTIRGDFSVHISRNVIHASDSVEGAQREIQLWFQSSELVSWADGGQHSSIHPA
Sequence of Isoform 2 of Tyrosine-protein kinase Fyn ; FYN ; P06241-2 (P06241 whole entry, canonical isoform): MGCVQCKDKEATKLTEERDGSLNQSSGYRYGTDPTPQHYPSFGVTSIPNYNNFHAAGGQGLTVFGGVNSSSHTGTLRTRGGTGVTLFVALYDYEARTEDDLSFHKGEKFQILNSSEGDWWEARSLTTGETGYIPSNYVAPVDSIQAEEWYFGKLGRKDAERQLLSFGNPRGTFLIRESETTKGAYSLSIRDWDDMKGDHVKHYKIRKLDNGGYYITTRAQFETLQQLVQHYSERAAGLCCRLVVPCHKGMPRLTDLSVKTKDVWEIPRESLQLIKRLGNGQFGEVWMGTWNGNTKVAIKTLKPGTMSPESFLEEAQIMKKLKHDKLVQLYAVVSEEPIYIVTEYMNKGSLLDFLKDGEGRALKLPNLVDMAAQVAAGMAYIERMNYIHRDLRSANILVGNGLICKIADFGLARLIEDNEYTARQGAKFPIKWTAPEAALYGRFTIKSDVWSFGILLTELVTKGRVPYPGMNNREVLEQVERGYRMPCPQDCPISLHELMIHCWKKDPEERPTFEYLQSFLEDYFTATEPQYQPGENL
Sequence of Serine/threonine-protein kinase 17B ; STK17B ; O94768 (O94768 whole entry, one chain of several): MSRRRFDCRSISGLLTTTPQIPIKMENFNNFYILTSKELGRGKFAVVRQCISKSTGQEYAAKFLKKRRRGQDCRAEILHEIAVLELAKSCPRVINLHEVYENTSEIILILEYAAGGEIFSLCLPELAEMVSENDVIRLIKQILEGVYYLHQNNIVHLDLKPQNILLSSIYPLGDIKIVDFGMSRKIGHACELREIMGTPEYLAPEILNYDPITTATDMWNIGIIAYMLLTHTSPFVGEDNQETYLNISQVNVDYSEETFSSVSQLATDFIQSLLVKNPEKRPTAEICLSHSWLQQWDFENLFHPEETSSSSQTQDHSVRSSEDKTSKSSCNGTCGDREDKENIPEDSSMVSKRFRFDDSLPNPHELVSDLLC
Sequence of Isoform 4 of Serine/threonine-protein kinase PAK 4 ; PAK4 ; O96013-4 (O96013 whole entry, canonical isoform, one chain of several): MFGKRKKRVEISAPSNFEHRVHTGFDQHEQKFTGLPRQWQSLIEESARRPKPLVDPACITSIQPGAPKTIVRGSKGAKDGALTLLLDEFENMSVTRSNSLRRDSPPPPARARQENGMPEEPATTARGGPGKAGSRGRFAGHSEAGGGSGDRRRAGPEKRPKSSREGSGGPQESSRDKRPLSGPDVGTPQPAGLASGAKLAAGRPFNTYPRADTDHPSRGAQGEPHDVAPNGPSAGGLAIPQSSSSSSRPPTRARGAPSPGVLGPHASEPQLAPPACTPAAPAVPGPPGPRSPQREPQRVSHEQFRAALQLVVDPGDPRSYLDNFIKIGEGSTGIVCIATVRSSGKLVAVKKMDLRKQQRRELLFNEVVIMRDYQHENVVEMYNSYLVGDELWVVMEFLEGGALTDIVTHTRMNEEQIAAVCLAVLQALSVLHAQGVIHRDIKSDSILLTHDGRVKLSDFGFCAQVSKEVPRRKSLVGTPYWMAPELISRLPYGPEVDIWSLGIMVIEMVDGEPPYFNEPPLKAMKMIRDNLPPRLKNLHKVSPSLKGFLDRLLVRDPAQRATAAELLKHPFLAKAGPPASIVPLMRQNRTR

remaining activity at 10 µM [1, 17]: 97% | remaining activity at 10 µM [2, 17]: 97.1% | remaining activity at 10 µM [3, 17]: 108% | remaining activity at 10 µM [4, 17]: 106% | remaining activity at 10 µM [5, 17]: 115% | remaining activity at 10 µM [6, 17]: 113% | remaining activity at 10 µM [7, 17]: 79.4% | remaining activity at 10 µM [8, 17]: 99.1% | remaining activity at 10 µM [9, 17]: 90.7% | remaining activity at 10 µM [10, 17]: 91.7% | remaining activity at 10 µM [11, 17]: 91.7% | remaining activity at 10 µM [12, 17]: 91.5% | remaining activity at 10 µM [13, 17]: 131% | remaining activity at 10 µM [14, 17]: 88.5% | remaining activity at 10 µM [15, 17]: 109% | remaining activity at 10 µM [16, 17]: 102%
SMILES: COc1cc(F)ccc1-c1ncnc(Nc2cccc(C[S@](C)(=N)=O)c2)n1 [BAY-1143572]

remaining activity at 10 µM [1, 18]: 87.9% | remaining activity at 10 µM [2, 18]: 97.3% | remaining activity at 10 µM [3, 18]: 102% | remaining activity at 10 µM [4, 18]: 108% | remaining activity at 10 µM [5, 18]: 101% | remaining activity at 10 µM [6, 18]: 115% | remaining activity at 10 µM [7, 18]: 94.8% | remaining activity at 10 µM [8, 18]: 89.3% | remaining activity at 10 µM [9, 18]: 108% | remaining activity at 10 µM [10, 18]: 108% | remaining activity at 10 µM [11, 18]: 95% | remaining activity at 10 µM [12, 18]: 95.9% | remaining activity at 10 µM [13, 18]: 146% | remaining activity at 10 µM [14, 18]: 84.7% | remaining activity at 10 µM [15, 18]: 106% | remaining activity at 10 µM [16, 18]: 99.3%
SMILES: COc1cc(F)ccc1-c1cc(Nc2cc(CS(C)(=N)=O)ccn2)ncc1F (centres unmarked) [BAY-1251152]
